# Measurements taken from ChEMBL document CHEMBL1201862, “PubChem BioAssay data set” (2004).
# Activity calls are given as the source filed them.
# Experiments:
# cells [1] = type: functional, cell-based
# cells [2] = type: functional, cell-based; remark: listed apart in the source
# [3] = HEK-293T viability loss after treatment – luminescence, T-cell screen hits, cytotoxicity control for TCR NF-kB inhibitor project, dose response (AID 489026); type: functional, cell-based;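 further: cells exposed to compound about 14 hours before the viability readout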
# HEK293 = test: HEK293T cell viability loss, resazurin readout – resazurin fluorescence, cytotoxicity control for NF-kB activator project, SAR follow-up (AID 493251); type: functional, cell-based; conditions: Homo sapiens
# [4] = biological target: Endoribonuclease toxin MazF (Escherichia coli K-12, UniProt P0AE70); test: activation of MazEF endoribonuclease cleavage – biochemical, fluorescence, single-stranded RNA substrate, uHTS hits, dose response (AID 588481); type: functional
# Beta Lactamase = Beta Lactamase (Pseudomonas aeruginosa, UniProt Q932Y6); test: BLA reporter interference, concentration series – BLA reporter cells, FRET fluorescence, artefact control for TLR9-MyD88 binding inhibitor project, dose response (AID 588341); type: cell-based;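 further: cell based assay in CHO-K1 cells stably expressing beta-lactamase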
# Caspase-6 = biological target: T1, Caspase-6 (Homo sapiens, UniProt P55212); test: inhibition of CASP6 peptide cleavage – biochemical, VEID-R110 fluorescence, cherry-pick, dose response (AID 720632)
# T1 sequence (P55212 whole entry): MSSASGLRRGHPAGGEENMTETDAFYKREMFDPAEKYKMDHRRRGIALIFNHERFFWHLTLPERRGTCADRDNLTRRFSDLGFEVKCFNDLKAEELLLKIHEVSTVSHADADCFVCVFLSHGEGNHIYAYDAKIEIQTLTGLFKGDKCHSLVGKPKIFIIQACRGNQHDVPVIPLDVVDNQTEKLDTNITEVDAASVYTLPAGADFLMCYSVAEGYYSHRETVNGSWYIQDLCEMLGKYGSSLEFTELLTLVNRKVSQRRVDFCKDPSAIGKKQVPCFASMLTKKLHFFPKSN
# [5] = biological target: Eukaryotic translation initiation factor 4E (Mus musculus, UniProt P63073); test: blockers of eIF4G binding by eIF4E – biochemical, TR-FRET, dose response (AID 855); type: functional;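 further: potency for disrupting eIF4E binding to eIF4GI seen as loss of FRET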
# [6] = cytotoxicity toward HCT116 cells – cell-based, CellTiter-Glo luminescence, IC50, dose response (AID 1117332); type: functional; conditions: HCT-116
# [7] = biological target: Small ubiquitin-related modifier 2 (Homo sapiens, UniProt P61956); test: disruption of SUMO2 interaction with SIM peptide – biochemical, fluorescence polarization, uHTS hits, selectivity assay for SUMO1 interaction inhibitor project, dose response (AID 624385); type: functional; conditions: read-out: IC50_Mean
# [8] = Reduced DLD-1 viability, concentration-response, CellTiter-Glo luminescence (AID 1117352); type: functional
# [9] = biological target: T2, Neuropeptide Y receptor type 2 (Homo sapiens, UniProt P49146); test: Fluorescence-based cell-based high-throughput dose response assay for agonists of NPY-Y2. [Related pubchem assays: 1703 (Screening assay (CNGC inhibitors).), 1359 (Screening assay (NPY-Y2 potentiators or agonists).), 1304 (Screening assay (NPY-Y1 potentiators or agonists).), 1710 (Screening assay (NPY-Y2 agonists).), 1791 (Summary AID.)]; type: functional
# T2 sequence (P49146 whole entry): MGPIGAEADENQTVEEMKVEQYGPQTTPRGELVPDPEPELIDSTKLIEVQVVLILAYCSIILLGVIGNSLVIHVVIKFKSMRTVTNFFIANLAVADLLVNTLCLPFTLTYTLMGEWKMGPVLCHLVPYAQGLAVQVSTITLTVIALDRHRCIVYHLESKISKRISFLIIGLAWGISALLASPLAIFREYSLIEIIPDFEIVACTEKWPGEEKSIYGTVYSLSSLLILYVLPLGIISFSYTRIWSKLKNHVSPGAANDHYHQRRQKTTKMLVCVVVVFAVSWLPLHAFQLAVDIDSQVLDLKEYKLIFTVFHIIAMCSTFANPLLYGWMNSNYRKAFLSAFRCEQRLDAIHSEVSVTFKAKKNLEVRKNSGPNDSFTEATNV
# [10] = biological target: T3, Calpain-2 catalytic subunit (Sus scrofa, UniProt P43367); test: m-calpain protease blockers, concentration series – biochemical, fluorogenic peptide substrate, dose response (AID 1420); type: functional
# T3 sequence (P43367 whole entry): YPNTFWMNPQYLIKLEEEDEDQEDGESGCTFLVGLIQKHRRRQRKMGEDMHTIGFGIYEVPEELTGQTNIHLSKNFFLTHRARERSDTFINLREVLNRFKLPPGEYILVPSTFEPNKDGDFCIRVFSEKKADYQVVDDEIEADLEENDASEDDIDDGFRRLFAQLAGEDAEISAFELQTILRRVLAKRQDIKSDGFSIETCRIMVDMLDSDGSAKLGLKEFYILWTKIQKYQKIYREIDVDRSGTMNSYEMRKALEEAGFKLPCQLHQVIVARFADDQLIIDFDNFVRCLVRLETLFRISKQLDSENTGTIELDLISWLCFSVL
# Chain of Beta Lactamase (Q932Y6 whole entry): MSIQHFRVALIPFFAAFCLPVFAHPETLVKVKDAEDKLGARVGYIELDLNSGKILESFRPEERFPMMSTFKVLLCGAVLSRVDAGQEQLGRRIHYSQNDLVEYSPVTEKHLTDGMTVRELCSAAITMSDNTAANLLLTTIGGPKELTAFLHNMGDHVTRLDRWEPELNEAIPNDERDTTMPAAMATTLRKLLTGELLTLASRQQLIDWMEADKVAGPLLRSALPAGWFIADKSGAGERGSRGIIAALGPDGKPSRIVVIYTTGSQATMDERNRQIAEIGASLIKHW
# Chain of Endoribonuclease toxin MazF (P0AE70 whole entry): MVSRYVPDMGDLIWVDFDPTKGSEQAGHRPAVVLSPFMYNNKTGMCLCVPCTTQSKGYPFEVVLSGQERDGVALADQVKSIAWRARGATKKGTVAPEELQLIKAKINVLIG
# Chain of Small ubiquitin-related modifier 2 (P61956 whole entry): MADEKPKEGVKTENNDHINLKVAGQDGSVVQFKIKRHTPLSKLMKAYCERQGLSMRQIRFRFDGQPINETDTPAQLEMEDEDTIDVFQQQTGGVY
# Chain of Eukaryotic translation initiation factor 4E (P63073 whole entry): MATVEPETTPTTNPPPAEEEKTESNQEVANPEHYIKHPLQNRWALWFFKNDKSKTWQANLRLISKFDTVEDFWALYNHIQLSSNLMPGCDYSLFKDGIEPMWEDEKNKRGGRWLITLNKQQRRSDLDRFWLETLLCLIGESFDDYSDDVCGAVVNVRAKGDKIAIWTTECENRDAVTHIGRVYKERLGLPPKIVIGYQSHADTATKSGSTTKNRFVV
compound,measurement,setting,value
CCCC(=O)NC(c1ccc(C(C)C)cc1)c1ccc2cccnc2c1O (stereo not drawn),EC50,cells [1],> 350 µM (not active)
same,EC50,cells [2],3.8 µM (active)
same,IC50,[3],> 80 µM (inactive)
same,IC50,HEK293,24.8 µM (inactive)
O=[N+]([O-])c1ccc(Sc2cccc[n+]2[O-])c2nonc12,EC50,[4],> 99 µM (inactive)
same,IC50,Beta Lactamase,7.63 µM (active)
same,AC50,Caspase-6,7.21 µM (active)
Oc1c(Cl)cc(Cl)c(Cl)c1Cc1c(O)c(Cl)cc(Cl)c1Cl [HEXACHLOROPHENE],IC50,[5],17.9 µM (active)
same,IC50,[6],0.0312 µM (active)
same,IC50,[7],8.49 µM (active)
same,IC50,[8],0.0157 µM (active)
same,EC50,[9],> 11.8 µM (not active)
same,IC50,[10],3.73 µM (active)
